Source: patent US20240408099A1, “COMBINATION […] OF KRAS G12D INHIBITORS WITH Pan ErbB FAMILY INHIBITORS” (MIRATI THERAPEUTICS, INC., priority 2021, published 2024)

What was measured:
[1] = tested on: ASPC1; test: Composite Synergy Score, Cell-Titer Glo 72 hours, dose matrix with MRTX1133; type: cell-based; details: combined with MRTX1133
Protocol: (§1) Assays for determining the synergy score for the pairwise combinations for each cell line were performed in triplicate. Three 96-well plates plus an additional 4 wells of a separate 96-well control plate for determining baseline luminescence were seeded with 2000 cells/well of a particular cell line in a total volume of 90 μl of a suitable growth medium for that cell line, e.g., RPMI 1640 medium supplemented with 10% FBS and any cell line specific reagents need for growth. The plates were incubated overnight at 37° C. in a 5% CO2 atmosphere.
(§2) To each of the designated baseline wells, 30 μl of Cell-Titer Glo reagent (CTG; Promega Corporation) was added to each well and the plates were incubated for 20 min with shaking at room temperature. Baseline luminescence was quantitated using a BMG ClarioStar multimode plate reader according to the manufacturer's instructions.
(§3) A series of working stock 1000× drug dilutions in 100% DMSO was prepared that includes an 8 point single agent dilution of MRTX 1133 and a 5-point single agent dilution of the pan ErbB family inhibitor. The dilutions used for MRTX1133 and the pan ErbB family inhibitor varied for each individual compound but were in the range of 3- to 6-fold/serial dilution.
(§4) A 10× intermediate dosing plate was prepared in serum free RPMI medium that contains arrayed single agent dilutions MRTX1133 or the pan ErbB family inhibitor. In addition, a matrix of 40 dilution combinations of MRTX1133 and the pan ErbB family inhibitor was prepared as test samples.
(§5) To each corresponding well of the three 96-well plates seeded with the appropriate cell line above, 10 μl of each 10× single agent and the 40 combinations of the dose matrix was added and the plates were incubated for 72 hours at 37 C in 5% CO2 atmosphere. A 30 μl aliquot of Cell-Titer Glo reagent (CTG) was added to each test well, the plates were incubated for 20 min with shaking at room temperature, and luminescence was quantitated using a BMG ClarioStar multimode plate reader according to the manufacturer's instructions.
(§6) The output of the data from each mathematical model is the assignment of a relative synergy score. The data reported in Table 1 are the aggregate sum of the Loewe additivity, Bliss independence, Highest Single Agent and ZIP scores (“Composite Synergy Score”).
(§7) The output of the data from each mathematical model is the assignment of a relative synergy score.

[2] = tested on: HCC1588; test: as above; type: cell-based; details: combined with MRTX1133
Protocol: as §1, §2, §3, §4, §5, §6, §7

[3] = tested on: HPAC; test: as above; type: cell-based; details: combined with MRTX1133
Protocol: as §1, §2, §3, §4, §5, §6, §7

[4] = tested on: Hec1B; test: as above; type: cell-based; details: combined with MRTX1133
Protocol: as §1, §2, §3, §4, §5, §6, §7

[5] = tested on: Panc0203; test: as above; type: cell-based; details: combined with MRTX1133
Protocol: as §1, §2, §3, §4, §5, §6, §7

[6] = tested on: Panc0504; test: as above; type: cell-based; details: combined with MRTX1133
Protocol: as §1, §2, §3, §4, §5, §6, §7

[7] = tested on: Panc0813; test: as above; type: cell-based; details: combined with MRTX1133
Protocol: as §1, §2, §3, §4, §5, §6, §7

[8] = tested on: Panc1005; test: as above; type: cell-based; details: combined with MRTX1133
Protocol: as §1, §2, §3, §4, §5, §6, §7

[9] = tested on: Panc1; test: as above; type: cell-based; details: combined with MRTX1133
Protocol: as §1, §2, §3, §4, §5, §6, §7

[10] = tested on: SNU1197; test: as above; type: cell-based; details: combined with MRTX1133
Protocol: as §1, §2, §3, §4, §5, §6, §7

[11] = tested on: SNU61; test: as above; type: cell-based; details: combined with MRTX1133
Protocol: as §1, §2, §3, §4, §5, §6, §7

[12] = tested on: SNUC2B; test: as above; type: cell-based; details: combined with MRTX1133
Protocol: as §1, §2, §3, §4, §5, §6, §7

[13] = tested on: SU8684; test: as above; type: cell-based; details: combined with MRTX1133
Protocol: as §1, §2, §3, §4, §5, §6, §7

[14] = tested on: LS180 cells; test: LS180 colon cancer xenograft, tumor volumes; type: in vivo, nude/nude mice; details: for tumor growth inhibition: 30 mg/kg BID, single agent, Day 15
Protocol: (§8) Immunocompromised nude/nude mice are inoculated in the right hind flank with cells harboring a KRas G12D mutation. When tumor volumes reach between 200-400 mm^3 in size, the mice are divided into four to five groups of 5 mice each. The first group is administered vehicle only. […] The fourth or last groups are administered the single agent dose of the KRas G12D inhibitor using the twice daily schedule and/or the 2 sequential days followed by 5 days off schedule in combination with the single agent dose of one of the EGFR inhibitors. […] Tumor volumes are measured using a caliper every two-three days and tumor volumes are calculated by the formula: […].
(§9) 20 to 30 nude/nude mice per study were inoculated in the right hind limb with 5×10^6 LS180 cells, AsPC-1 cells, GP2D cells, Panc 02.03 cells, SW1990 cells, or SNU-1033 cells.
Experimental Procedures. 25 nude/nude mice were inoculated with LS180 cells in the right hind flank. When the tumors reached ˜250 mm^3 five treatment groups were established with five mice per group.

[15] = tested on: GP2D cells; test: GP2D TGI MDS 200108-807 colorectal cancer xenograft, tumor volumes; type: in vivo, nude/nude mice; details: for Average Tumor Volumes: 30 mg/kg BID Daily
Protocol: as §8, §9
Experimental Procedures. 20 nude/nude mice were inoculated with GP2D cells in the right hind flank. When the tumors reached ˜300 mm^3 four treatment groups were established with five mice per group.

[16] = tested on: AsPC-1 cells; test: AsPC-1 TGI 26 pancreatic cancer xenograft, tumor volumes; type: in vivo, nude/nude mice; details: for Average Tumor Volumes: 30 mg/kg IP BID daily
Protocol: as §8
Experimental Procedures. 20 nude/nude mice were inoculated with AsPC-1 cells in the right hind flank. When the tumors reached ˜200 mm^3 four treatment groups were established with five mice per group.

For `CN(C)C/C=C/C(=O)Nc1cc2c(Nc3ccc(F)c(Cl)c3)ncnc2cc1OC1CCOC1` (centres unmarked) [Afatinib, (E)-N-(4-((3-chloro-4-fluorophenyl)amino)-7-((tetrahydrofuran-3-yl)oxy)quinazolin-6-yl)-4-(dimethylamino)but-2-enamide, reference compound], the “Composite Synergy Score” value [1] was 28, the “Composite Synergy Score” value [2] was 10 and the “Composite Synergy Score” value [3] was 33. For the same compound, the “Composite Synergy Score” value [4] was −5, the “Composite Synergy Score” value [5] was 54 and the “Composite Synergy Score” value [6] was 24. For the same compound, the “Composite Synergy Score” value [7] was 20, the “Composite Synergy Score” value [8] was 37 and the “Composite Synergy Score” value [9] was −6. The “Composite Synergy Score” value [10] was 63, the “Composite Synergy Score” value [11] was 44 and the “Composite Synergy Score” value [12] was 25. The “Composite Synergy Score” value [13] was 42.
`C#Cc1c(F)ccc2cc(O)cc(-c3ncc4c(N5C[C@H]6CC[C@@H](C5)N6)nc(OC[C@@]56CCCN5C[C@H](F)C6)nc4c3F)c12` [MRTX1133, 4-(4-((1R,5S)-3,8-diazabicyclo[3.2.1]octan-3-yl)-8-fluoro-2-(((2R,7aS)-2-fluorohexahydro-1H-pyrrolizin-7a-yl)methoxy)pyrido[4,3-d]pyrimidin-7-yl)-5-ethynyl-6-fluoronaphthalen-2-ol] was tested, and the “Average Tumor Volumes” value ([14]; 30 mg/kg BID 2x/week, Study Day 1) was 272.338 mm^3, the “Average Tumor Volumes” value ([14]; 30 mg/kg BID 2x/week, Study Day 4) was 570.528 mm^3 and the “Average Tumor Volumes” value ([14]; 30 mg/kg BID 2x/week, Study Day 8) was 1134.668 mm^3. For the same compound, the “Average Tumor Volumes” value ([14]; 30 mg/kg BID 2x/week, Study Day 11) was 1439.99 mm^3, the “Average Tumor Volumes” value ([14]; 30 mg/kg BID 2x/week, Study Day 15) was 1899.832 mm^3 and the “Average Tumor Volumes” value ([14]; 30 mg/kg BID Daily, Study Day 1) was 268.94 mm^3. For the same compound, the “Average Tumor Volumes” value ([14]; 30 mg/kg BID Daily, Study Day 4) was 418.808 mm^3, the “Average Tumor Volumes” value ([14]; 30 mg/kg BID Daily, Study Day 8) was 593.71 mm^3 and the “Average Tumor Volumes” value ([14]; 30 mg/kg BID Daily, Study Day 11) was 808.808 mm^3. The “Average Tumor Volumes” value ([14]; 30 mg/kg BID Daily, Study Day 15) was 1197.106 mm^3, the tumor growth inhibition ([14]; daily administration) was 45% and the tumor growth inhibition ([14]; twice per week administration) was 4%. For the same compound, the “Average Tumor Volumes” value ([15]; Study Day 2) was 341.3 mm^3, the “Average Tumor Volumes” value ([15]; Study Day 6) was 282.98 mm^3 and the “Average Tumor Volumes” value ([15]; Study Day 9) was 237.18 mm^3. The “Average Tumor Volumes” value ([15]; Study Day 13) was 244.1 mm^3, the “Average Tumor Volumes” value ([15]; Study Day 16) was 198.725 mm^3 and the “Average Tumor Volumes” value ([15]; Study Day 20) was 288.05 mm^3. For the same compound, the “Average Tumor Volumes” value ([15]; Study Day 23) was 339 mm^3, the “Average Tumor Volumes” value ([15]; Study Day 27) was 385.85 mm^3 and the “Average Tumor Volumes” value ([15]; Study Day 30) was 394.05 mm^3. For the same compound, the tumor growth inhibition ([15]; 30 mg/kg BID daily, single agent, Day 30) was 96%, the “Average Tumor Volumes” value ([16]; Study Day 0) was 197.468 mm^3 and the “Average Tumor Volumes” value ([16]; Study Day 4) was 194.514 mm^3. For the same compound, the “Average Tumor Volumes” value ([16]; Study Day 7) was 175.198 mm^3, the “Average Tumor Volumes” value ([16]; Study Day 11) was 159.756 mm^3 and the “Average Tumor Volumes” value ([16]; Study Day 14) was 172.986 mm^3. The “Average Tumor Volumes” value ([16]; Study Day 18) was 168.412 mm^3, the “Average Tumor Volumes” value ([16]; Study Day 21) was 143.928 mm^3 and the “Average Tumor Volumes” value ([16]; Study Day 25) was 149.308 mm^3. It also gave a tumor regression ([16]; 30 mg/kg twice daily, single agent, Day 25) of −24%.
